Like-named read-outs stand apart in the source and are kept apart here.
Columns and labels:
Zein = conditions: normalized to SLS as 100%; Stepan Chemical company literature; cited from earlier work
Zein corn protein [1] = experiment: Zein test (Zein score, skin irritation potential); conditions: 1 wt % active surfactant solution
Source text: (§1) Zein score can be measured using a Zein test (Gott, E., Aesthet. Medzin., Tenside 15: 313 (1966)), although other methodologies are known in the art. The Zein test determines the extent of denaturation of Zein corn protein after exposure to a surfactant for a given period of time. The higher the Zein score, the greater the skin irritation potential.
(§2) Zein scores for formulations (or detergent products) described herein refer to Zein scores obtained when a 10% dilution of a given formulation (or detergent product) is tested. Zein scores for individual surfactants refer to Zein scores obtained from testing 1% active surfactant solutions.
(§3) The “test surfactant solution” can be a solution with 1 wt % active surfactant when a surfactant is tested by itself Alternatively, the test surfactant solution can be a 10 wt % dilution of a formulation or product described herein. […] An aliquot (3.0 mL) was accurately measured and removed and set aside in a closed container as a blank solution. […] If all of the Zein protein was dissolved, 1 gram of additional Zein protein was added so that some solid remained undissolved. The mixture was stirred for one hour at room temperature. Undissolved Zein was then removed by filtration to obtain a filtrate solution. A 3.0 ml aliquot of the filtrate solution was accurately measured and placed in a tared aluminum pan and dried in an oven at 70° C. The percent of solids was calculated. Likewise, the blank solution was dried at 70° C. and the solids content of this 3 mL aliquot was determined. The solid weight in the blank solution was subtracted from the solid weight in the filtration solution and the quantity of dissolved Zein in the filtration solution was calculated by difference and reported as g Zein/100 g surfactant solution (also called “% Zein” or “Zein score”).
(§4) As a control, a Zein score was also measured for the Commercial Comparator using a 10% dilution.

Zein corn protein [2] = test system: Zein corn protein
Source text: as §1, §2, §3, §4

| Molecule | Normalized Zein Score of Surfactant (Zein) | % Zein (g/100 g surfactant solution) (Zein corn protein [1]) | % Zein (g/100 g surfactant solution) (Zein corn protein [2]) |
| --- | --- | --- | --- |
| CCCCCCCCCCC(C(=O)OC)S(=O)(=O)O.[Na] (centres unmarked) [MES, Sodium methyl 2-sulfolaurate] | 68% | – | – |
| CCCCCCCCCCCCOS(=O)(=O)[O-].[Na+] [Sodium lauryl sulfate (SLS), Sodium lauryl sulfate] | – | 2.70 g/100 g surfactant solution | – |
| Cocoamidopropyl betaine [Cocoamidopropyl betaine (CAPB)] | 30% | – | 0.56 g/100 g surfactant solution |
| Disodium Laureth Sulfosuccinate [STEPAN-MILD SL3-BA] | 44% | – | – |
| Methyl ester sulfonate C16-C18 [Methyl ester sulfonate C16-C18 (MES)] | – | – | 1.55 g/100 g surfactant solution |
| Sodium C14-16 Olefin Sulfonate (AOS) [BIO-TERGE AS-40] | 75% | – | – |
| Sodium Methyl Cocoyl Taurate [Pureact WS Conc.] | 45% | – | – |
